Source: ChEMBL document CHEMBL5143555, “Potentiating the intracellular killing of Staphylococcus aureus by dihydroquinazoline analogues as NorA efflux pump inhibitor” (Bioorg Med Chem, 2022)
Values after ≈ are worked out from the molar mass of the structure shown. Active and inactive are the calls of the source. The calls are words filed in the database; no cut-off is given here.

Key:
[1] = target: T1, Quinolone resistance protein NorA (Staphylococcus aureus) (UniProt P0A0J7); assay: Inhibition of NorA in Staphylococcus aureus 1199B assessed as accumulation of ethidium bromide at 3.9 ug/ml by measuring fluorescence intensity measured at 5 mins interval for 40 mins by fluorescence spectrophotometry; details: dose 3.9 µg/ml
T1 sequence (whole entry): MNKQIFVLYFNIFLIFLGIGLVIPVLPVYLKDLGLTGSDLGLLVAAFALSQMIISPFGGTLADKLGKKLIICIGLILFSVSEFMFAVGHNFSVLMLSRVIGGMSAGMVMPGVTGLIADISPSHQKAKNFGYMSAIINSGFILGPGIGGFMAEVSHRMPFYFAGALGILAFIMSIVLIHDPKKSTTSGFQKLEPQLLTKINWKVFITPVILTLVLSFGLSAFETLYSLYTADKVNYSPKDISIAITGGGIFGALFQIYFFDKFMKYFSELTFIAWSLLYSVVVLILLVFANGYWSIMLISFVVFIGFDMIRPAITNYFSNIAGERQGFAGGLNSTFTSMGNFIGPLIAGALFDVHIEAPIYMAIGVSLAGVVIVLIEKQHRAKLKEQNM

[2] = test system: Staphylococcus aureus; assay: Antibacterial activity against Staphylococcus aureus K1758 measured after 24 hrs by Muller Hinton broth based MTT assay; format: functional
[3] = target: T1, Quinolone resistance protein NorA (Staphylococcus aureus); assay: Inhibition of NorA in Staphylococcus aureus 1199B assessed as potentiation of ethidium bromide-induced antibacterial activity by measuring ethidium bromide MIC at sub MIC
[4] = test system: Staphylococcus aureus; assay: Down regulation of NorA gene expression in Staphylococcus aureus 1199B at 3.9 ug/ml measured after 2 hrs by qRT-PCR analysis; format: functional; details: dose 3.9 µg/ml
[5] = test system: Staphylococcus aureus; assay: Antibacterial activity against Staphylococcus aureus 1199 measured after 24 hrs by Muller Hinton broth based MTT assay; format: functional
[6] = target: T1, Quinolone resistance protein NorA (Staphylococcus aureus); assay: Inhibition of NorA in Staphylococcus aureus 1199B assessed as potentiation of ethidium bromide-induced antibacterial activity by measuring fractional inhibitory concentration
[7] = target: T1, Quinolone resistance protein NorA (Staphylococcus aureus); assay: Inhibition of NorA in Staphylococcus aureus 1199B assessed as accumulation of norfloxacin at 3.9 ug/ml by measuring fluorescence intensity measured at 5 mins interval for 40 mins by fluorescence spectrophotometry; details: dose 3.9 µg/ml
[8] = target: T1, Quinolone resistance protein NorA (Staphylococcus aureus); assay: Inhibition of NorA in Staphylococcus aureus 1199B assessed as potentiation of norfloxacin-induced morphological changes by measuring appearance of lysed cell at sub MIC by field emission scanning electron microscopy
[9] = target: T1, Quinolone resistance protein NorA (Staphylococcus aureus); assay: Inhibition of NorA in Staphylococcus aureus 1199B infected human THP-1 cells assessed as potentiation of 3.1 ug/ml norfloxacin-induced bactericidal activity by measuring log reduction in bacterial count at 15.6 ug/ml measured after 24 hrs relative to control; format: cell-based; details: dose 15.6 µg/ml
[10] = test system: Staphylococcus aureus; assay: Down regulation of NorA gene expression in Staphylococcus aureus 1199B at 1.55 ug/ml measured after 2 hrs by qRT-PCR analysis relative to control; format: functional; details: dose 1.55 µg/ml
[11] = target: T1, Quinolone resistance protein NorA (Staphylococcus aureus); assay: Inhibition of NorA in Staphylococcus aureus 1199B assessed as potentiation of ethidium bromide-induced antibacterial activity by measuring ethidium bromide MIC at sub MIC relative to ethidium bromide MIC alone
[12] = test system: Staphylococcus aureus; assay: Down regulation of NorA gene expression in Staphylococcus aureus 1199B at 1.55 ug/ml measured after 2 hrs in presence of norfloxacin by qRT-PCR analysis relative to norfloxacin; format: functional; details: dose 1.55 µg/ml
[13] = target: T1, Quinolone resistance protein NorA (Staphylococcus aureus); assay: Inhibition of NorA in Staphylococcus aureus 1199B infected human THP-1 cells assessed as potentiation of norfloxacin-induced bactericidal activity by measuring reduction in intracellular invasion at modulatory concentration measured after 24 hrs; format: cell-based
[14] = target: T1, Quinolone resistance protein NorA (Staphylococcus aureus); assay: Inhibition of NorA in Staphylococcus aureus 1199B assessed as potentiation of 3.1 ug/mL ethidium bromide-induced bactericidal activity by measuring log reduction in bacterial count at sub MIC measured within 4 hrs by time-kill kinetics assay
[15] = target: T1, Quinolone resistance protein NorA (Staphylococcus aureus); assay: Inhibition of NorA in Staphylococcus aureus 1199B infected human THP-1 cells assessed as potentiation of norfloxacin-induced bactericidal activity by measuring reduction in intracellular proliferation at modulatory concentration measured after 24 hrs; format: cell-based
[16] = target: T1, Quinolone resistance protein NorA (Staphylococcus aureus); assay: Inhibition of NorA in Staphylococcus aureus 1199B assessed as potentiation of 3.1 ug/mL norfloxacin-induced bactericidal activity by measuring log reduction in bacterial count at 7.8 ug/mL measured after 4 hrs by time-kill kinetics assay; details: dose 7.8 µg/ml
[17] = test system: Staphylococcus aureus; assay: Antibacterial activity against Staphylococcus aureus 1199B measured after 24 hrs by Muller Hinton broth based MTT assay; format: functional
[18] = target: T1, Quinolone resistance protein NorA (Staphylococcus aureus); assay: Inhibition of NorA in Staphylococcus aureus 1199B infected human THP-1 cells assessed as potentiation of norfloxacin-induced bactericidal activity by measuring reduction in bacterial count at modulatory concentration measured after 24 hrs; format: cell-based
[19] = target: T1, Quinolone resistance protein NorA (Staphylococcus aureus); assay: Inhibition of NorA in Staphylococcus aureus 1199B assessed as potentiation of norfloxacin-induced antibacterial activity by measuring Norfloxacin MIC at sub MIC
[20] = target: T1, Quinolone resistance protein NorA (Staphylococcus aureus); assay: Inhibition of NorA in Staphylococcus aureus 1199B assessed as potentiation of norfloxacin-induced antibacterial activity by measuring Norfloxacin MIC at sub MIC relative to norfloxacin MIC alone
[21] = target: T1, Quinolone resistance protein NorA (Staphylococcus aureus); assay: Inhibition of NorA in Staphylococcus aureus 1199B assessed as potentiation of norfloxacin-induced antibacterial activity by measuring fractional inhibitory concentration
[22] = target: T1, Quinolone resistance protein NorA (Staphylococcus aureus); assay: Inhibition of NorA in Staphylococcus aureus 1199B infected human THP-1 cells assessed as potentiation of norfloxacin-induced bactericidal activity by measuring log reduction in bacterial count measured after 24 hrs relative to vancomycin; format: cell-based
[23] = target: T1, Quinolone resistance protein NorA (Staphylococcus aureus); assay: Inhibition of NorA in Staphylococcus aureus 1199B infected human THP-1 cells assessed as potentiation of norfloxacin-induced bactericidal activity by measuring reduction in bacterial count at modulatory concentration measured after 24 hrs relative to control; format: cell-based
[24] = Cytotoxicity against kidney epithelial cells (unknown origin) assessed as cell viability at 50 ug/mL measured after 24 hrs by alamar blue assay relative to control; format: toxicity, cell-based, Fetal kidney cell; details: at 50 µg/mL, read-out: Activity
[25] = target: T1, Quinolone resistance protein NorA (Staphylococcus aureus); assay: Inhibition of NorA in Staphylococcus aureus 1199B assessed as potentiation of 3.1 ug/mL norfloxacin-induced bactericidal activity by measuring log reduction in bacterial count at 7.8 ug/mL measured after 8 hrs by time-kill kinetics assay; details: dose 7.8 µg/ml
[26] = test system: Staphylococcus aureus; assay: Up regulation of NorA gene expression in Staphylococcus aureus 1199B at 3.9 ug/ml measured after 2 hrs in presence of norfloxacin by qRT-PCR analysis relative to control; format: functional; details: dose 3.9 µg/ml
[27] = test system: Staphylococcus aureus; assay: Up regulation of NorA gene expression in Staphylococcus aureus 1199B at 3.9 ug/ml measured after 2 hrs by qRT-PCR analysis relative to control; format: functional; details: dose 3.9 µg/ml
[28] = target: T1, Quinolone resistance protein NorA (Staphylococcus aureus); assay: Inhibition of NorA in Staphylococcus aureus 1199B assessed as potentiation of ethidium bromide-induced bactericidal activity at 7.8 ug/ml measured after 24 hrs by time-kill kinetics assay; details: dose 7.8 µg/ml
[29] = target: T1, Quinolone resistance protein NorA (Staphylococcus aureus); assay: Inhibition of NorA in Staphylococcus aureus 1199B assessed as potentiation of norfloxacin-induced morphological changes by measuring appearance of plicated and with cracked surface at sub MIC by field emission scanning electron microscopy
[30] = test system: Staphylococcus aureus; assay: Up regulation of NorA gene expression in Staphylococcus aureus 1199B at 1.55 ug/ml measured after 2 hrs by qRT-PCR analysis relative to control; format: functional; details: dose 1.55 µg/ml
[31] = test system: Staphylococcus aureus; assay: Bactericidal activity against Staphylococcus aureus 1199B at 50 ug/mL by time-kill kinetics assay; format: functional, organism-based; details: dose 50.0 µg/ml
[32] = test system: Staphylococcus aureus; assay: Bactericidal activity against Staphylococcus aureus 1199B assessed as bacterial count at 3.1 ug/mL measured after 24 hrs by time-kill kinetics assay; format: functional; details: dose 3.1 µg/ml
[33] = test system: Staphylococcus aureus; assay: Down regulation of NorA gene expression in Staphylococcus aureus 1199B at 3.1 ug/ml measured after 2 hrs by qRT-PCR analysis relative to control; format: functional; details: dose 3.1 µg/ml
[34] = target: T1, Quinolone resistance protein NorA (Staphylococcus aureus); assay: Inhibition of NorA in Staphylococcus aureus 1199B assessed as potentiation of norfloxacin-induced morphological changes by measuring appearance of rough and dented cell at sub MIC by field emission scanning electron microscopy
[35] = target: T1, Quinolone resistance protein NorA (Staphylococcus aureus); assay: Inhibition of NorA in Staphylococcus aureus 1199B assessed as potentiation of ethidium bromide-induced bactericidal activity at 15.6 ug/ml measured within 8 hrs by time-kill kinetics assay; details: dose 15.6 µg/ml
[36] = test system: Staphylococcus aureus; assay: Down regulation of NorA gene expression in Staphylococcus aureus 1199B at 3.1 ug/ml measured after 2 hrs in presence of norfloxacin by qRT-PCR analysis relative to norfloxacin; format: functional; details: dose 3.1 µg/ml
[37] = target: T1, Quinolone resistance protein NorA (Staphylococcus aureus); assay: Inhibition of NorA in Staphylococcus aureus 1199B infected human THP-1 cells assessed as potentiation of 6.2 ug/ml norfloxacin-induced bactericidal activity by measuring log reduction in bacterial count at 15.6 ug/ml measured after 24 hrs relative to control; format: cell-based; details: dose 15.6 µg/ml

| SMILES | Flu intensity [1] | MIC [2] [µg/mL] | MIC [3] [µg/mL] | Activity [4] | MIC [5] [µg/mL] | fractional inhibitory concentration index (FICI) [6] | Flu intensity [7] | FC [9] | fold change (FC) [11] | inhibition [13] | inhibition [15] | MIC [17] [µg/mL] | Activity [18] [log10CFU/ml] | MIC [19] [µg/mL] | fold change (FC) [20] | fractional inhibitory concentration index (FICI) [21] | FC [22] | fold change (FC) [23] | viability at 24 h, 50 ug/mL [24] [%] | Activity [25] [log10CFU/ml] | other results |
| --- | --- | --- | --- | --- | --- | --- | --- | --- | --- | --- | --- | --- | --- | --- | --- | --- | --- | --- | --- | --- | --- |
| Fc1ccccc1C1=NC(c2ccco2)Nc2ccc(Cl)cc21 (configuration not stated) | 248 | 3.9 (≈ 11.9 µM) | 3.1 | Active | 125 (≈ 383 µM) | 0.125 | 28700 | 5 | 16 | Active | Active | 500 (≈ 1530 µM) | 4.68 | 3.1 | 16 | 0.078 | 3 | 4 | 95.3 | – | inhibition [8]: Active; fold change (FC) [10]: 8; fold change (FC) [12]: 9; Activity [14]: > 3 log10CFU/ml; Activity [16]: > 3 log10CFU/ml |
| Brc1ccc(C2=NC(c3ccc(Br)cc3)Nc3ccccc32)cc1 (configuration not stated) | 127 | 15.6 (≈ 35.3 µM) | 12.5 | – | 125 (≈ 283 µM) | 0.266 | 13000 | 5 | 4 | Active | Active | 500 (≈ 1130 µM) | 4.13 | 3.1 | 16 | 0.078 | 3 | 4 | 93.6 | > 3 | fold change (FC) [26]: 3; fold change (FC) [27]: 3; inhibition [28]: Active; inhibition [29]: Active |
| CCn1cc(C(=O)O)c(=O)c2cc(F)c(N3CCNCC3)cc21 [NORFLOXACIN] | – | 0.2 (≈ 0.626 µM) | – | – | 1.56 (≈ 4.89 µM) | – | – | – | – | – | – | 50 (≈ 157 µM) | – | – | – | – | – | – | – | – | fold change (FC) [30]: 0.076; inhibition [31]: Active; Activity [32]: 6 log10CFU/ml |
| C=CCOc1ccc(C2N=C(c3ccccc3)c3cc(Cl)ccc3N2C)cc1 (configuration not stated) | 173 | 31.2 (≈ 80.2 µM) | 12.5 | Active | 125 (≈ 321 µM) | 0.281 | 15400 | – | 4 | Active | Active | 500 (≈ 1290 µM) | 4.25 | 6.2 | 8 | 0.141 | 3 | 4 | 94.8 | > 3 | fold change (FC) [33]: 8; inhibition [34]: Active; inhibition [35]: Active; fold change (FC) [36]: 9; FC [37]: 5 |
